Results reported in patent US20220249687A1, “BIS(2-HALOACETAMIDO)-COMPOUNDS FOR USE AS LINKING AGENTS AND RESULTANT PRODUCTS WHICH COMPRISE ANTIBODIES, HALF-ANTIBODIES AND ANTIBODY FRAGMENTS” (THE UNIVERSITY OF BATH, priority 2019, published 2022).

Test: Reactivity of linker compounds with glutathione
Conditions: pH=7, RT
Procedure: Relative reactivities of the compounds were evaluated towards the small thiol containing peptide glutathione (pH=7, RT). […] Without wishing to be bound by any particular theory, the inventors speculate that the difference in reactivity and stability of the ortho and meta compounds may be attributed to differences in the 3D structures of each compound. Methyl 3,5-bis(2-chloroacetamido)benzoate (1) is predicted to have a planar conformation. Thus, steric hindrance could slow the backside attack of thiolate at the carbon attached to halogen (through an SN2 mechanism). This might explain the greater reactivity of ortho compounds like methyl 3,4-bis(2-chloroacetamido)benzoate (4). Compound (4) is not planar and might afford a more accessible carbon for backside attack.
The reactivity of the linker compounds of the present invention was tested by reaction with glutathione. The following representative reactions are described. Analogous reactions were performed with amide functionalised linker compounds.
The inventors compared the reactivity of various linker compounds of the invention by determining the percentage remaining of the bis-haloacetamide derivatives 14-17 in the presence of glutathione (2.2 equiv.) in aqueous phosphate buffer (100 mM, pH 7.5).

COC(=O)c1ccc(NC(=O)CCl)c(NC(=O)CCl)c1 [Compound 4, methyl 3,4-bis(2-chloroacetamido)benzoate]
relative reactivity towards glutathione (reaction rate): react significantly faster than the 3,5-bis-Cl compound (1)
